Test results as given in patent US9526681B2, “Compositions and methods for treating dental caries” (Colgate-Palmolive Company, priority 2012, dated 2016).

System: salivary sediment (oral cavity bacteria)
Assay: Ammonia production by salivary sediment incubated with sucrose (diagnostic ammonia assay kit)
Assay type: cell-based
Conditions: 0.1% sucrose, 37 degrees Celsius, 30 minutes; for ammonia production, Mean: mean of three trials
Protocol: In order to investigate the effects of arginine alone, mixtures of arginine and bisabolol and bisabolol alone, on the production of ammonia in the present or oral bacterium the following procedures are carried out. Stimulated whole saliva is collected on ice and centrifuged for 15 minutes at 4000 rpm to obtain a pellet and salivary supernatant. The pellet, which is termed the salivary sediment, contains a representative array of the oral microbes found in the oral cavity. This pellet is washed twice in cold filter sterilized deionized water by centrifugation for 10 minutes at 4000 rpm.
The salivary sediment is then diluted to 50% with cold filter sterilized deionized water. Stock solutions of 1% arginine and 1% sucrose in filter sterilized deionized water are made, and a stock solution of 1% bisabolol in ethanol is also made. Reaction mixtures tested contain 16.7% final concentration salivary sediment, 0.1% final concentration sucrose and 0.0871% final concentration arginine. The control reaction mixture contains only salivary sediment, sucrose and arginine in the salivary supernatant base. The test solutions have a final concentration of 0.05 and 0.1 bisabolol, respectively. The reaction mixtures are then incubated at 37 degrees Celsius for 30 minutes with mild agitation before determining ammonia production. A standard diagnostic ammonia assay kit is used to quantify ammonia produced.
Table 1 (below) describes the results of the procedures described above, wherein the ammonia production is measured in terms of nanomole per milligram (nm/mg).
Column A in Table 1 describes data collected for three trials of L-arginine (Control) reaction mixtures that contain salivary sediment and salivary supernatant with final concentrations of 0.1% sucrose and 0.0871% L-arginine. Column B in Table 1 describes data collected for three trials of 0.05% bisabolol plus arginine reaction mixtures that contain salivary sediment and salivary supernatant with final concentrations of 0.1% sucrose, 0.05% bisabolol and 0.0871% L-arginine. Column C in Table 1 describes data collected for three trials of 0.05% bisabolol reaction mixtures that contain salivary sediment and salivary supernatant with final concentrations of 0.1% sucrose and 0.05% bisabolol. Column D in Table 1 describes data collected for three trials of 0.1% bisabolol plus arginine reaction mixtures that contain salivary sediment and salivary supernatant with final concentrations of 0.1% sucrose, 0.1% Bisabolol and 0.0871% L-arginine. Column E in Table 1 describes data collected for three trials of 0.1% bisabolol reaction mixtures that contain salivary sediment and salivary supernatant with final concentrations of 0.1% sucrose and 0.1% bisabolol.

[1] = 0.05% bisabolol (with 0.0871% L-arginine in the combination), salivary sediment
[2] = 0.1% bisabolol (with 0.0871% L-arginine in the combination), salivary sediment
[3] = 0.0871% L-arginine, no bisabolol, 16.7% salivary sediment

Compound	ammonia production, Trial 1 [1]	ammonia production, Trial 2 [1]	ammonia production, Trial 3 [1]	ammonia production, Trial 1 [2]	ammonia production, Trial 2 [2]	ammonia production, Trial 3 [2]	ammonia production, Mean [1]	ammonia production, Mean [2]	ammonia production, Trial 1 [3]	ammonia production, Trial 2 [3]	ammonia production, Trial 3 [3]	ammonia production, Mean [3]
CC(C)=CCC[C@](C)(O)C1CC=C(C)CC1 (stereo partly drawn) [Bisabolol, bisabolol]	200.61 nm/mg	27.86 nm/mg	66.87 nm/mg	133.74 nm/mg	562.81 nm/mg	228.47 nm/mg	98.45 nm/mg	308.34 nm/mg	–	–	–	–
N=C(N)NCCC[C@H](N)C(=O)O [Arginine, L-arginine, reference compound]	–	–	–	–	–	–	–	–	1532.40 nm/mg	1799.88 nm/mg	986.31 nm/mg	1439.53 nm/mg
